Measurements: patent US8455475B2 (Gruenenthal GmbH, priority 2009, dated 2013)

Biological target: T1, rat B1R (bradykinin receptor 1) (Rattus norvegicus, UniProt P97583)
T1 construct: expressed in transfected cells; host or cells: CHO K1 cells
T1 sequence (P97583 1-337): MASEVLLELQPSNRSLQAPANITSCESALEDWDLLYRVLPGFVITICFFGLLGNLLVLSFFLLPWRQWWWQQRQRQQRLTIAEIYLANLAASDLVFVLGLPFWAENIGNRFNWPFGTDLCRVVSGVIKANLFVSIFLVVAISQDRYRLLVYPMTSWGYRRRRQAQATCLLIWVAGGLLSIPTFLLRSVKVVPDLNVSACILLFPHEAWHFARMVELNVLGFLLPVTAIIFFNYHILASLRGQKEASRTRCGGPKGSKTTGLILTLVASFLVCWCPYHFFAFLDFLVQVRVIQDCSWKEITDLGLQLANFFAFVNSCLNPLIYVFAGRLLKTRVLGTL
Test: FLIPR Ca2+ assay (Fluo-4) on CHO K1 cells stably transfected with the B1R gene of the rat (rB1R cells): % inhibition at 10 μM / IC50, agonist Des-Arg9-bradykinin
Assay type: cell-based
Details: CHO-K1, rat B1R
Method: The agonistic or antagonistic action of substances can be quantified on the bradykinin receptor 1 (B1R) of the human and rat species with ectopically expressing cell lines (CHO K1 cells) and with the aid of a Ca^2+-sensitive dyestuff (Fluo-4) in a fluorescent imaging plate reader (FLIPR). The figure in % activation is based on the Ca^2+ signal after addition of Lys-Des-Arg^9-bradykinin (0.5 nM) or Des-Arg^9-bradykinin (100 nM). Antagonists lead to a suppression of the Ca^2+ inflow after addition of the agonist. % inhibition compared with the maximum achievable inhibition is stated.
The agonistic or antagonistic action of substances can be determined on the bradykinin receptor 1 (B1R) of the human and rat species with the following assay. In accordance with this assay, the Ca^2+ inflow through the channel is quantified with the aid of a Ca^2+-sensitive dyestuff (type Fluo-4, Molecular Probes Europe BV, Leiden, Holland) in a fluorescent imaging plate reader (FLIPR, Molecular Devices, Sunnyvale, USA).
Chinese hamster ovary cells (CHO K1 cells) transfected stably with the human B1R gene (hB1R cells) or the B1R gene of the rat (rB1R cells) are used. For functional studies, these cells are plated out on black 96-well plates with a clear base (BD Biosciences, Heidelberg, Germany or Greiner, Frickenhausen, Germany) in a density of 20,000-35,000 cells/well. The cells are left overnight at 37° C. and 5% CO2 in culture medium (hB1R cells: Nutrient Mixture Ham's F12, Gibco Invitrogen GmbH, Karlsruhe, Germany or DMEM, Sigma-Aldrich, Taufkirchen, Germany; rB1R cells: D-MEM/F12, Gibco Invitrogen GmbH, Karlsruhe, Germany) with 10 vol. % FBS (foetal bovine serum, Gibco Invitrogen GmbH, Karlsruhe, Germany or PAN Biotech GmbH, Aidenbach, Germany). On the following day, the cells are loaded for 60 min at 37° C. with 2.13 μM Fluo-4 (Molecular Probes Europe BV, Leiden Holland) in HBSS buffer (Hank's buffered saline solution, Gibco Invitrogen GmbH, Karlsruhe, Germany) with 2.5 mM probenecid (Sigma-Aldrich, Taufkirchen, Germany) and 10 mM HEPES (Sigma-Aldrich, Taufkirchen, Germany). The plates are then washed 2× with HBSS buffer, and HBSS buffer which additionally contains 0.1% BSA (bovine serum albumin; Sigma-Aldrich, Taufkirchen, Germany), 5.6 mM glucose and 0.05% gelatine (Merck KGaA, Darmstadt, Germany) is added. After a further incubation of 20 minutes at room temperature, the plates are inserted into the FLIPR for the Ca^2+ measurement. Alternatively, the plates are washed with buffer A (15 mM HEPES, 80 mM NaCl, 5 mM KCl, 1.2 mM CaCl2, 0.7 mM MgSO4, 2 g/l glucose, 2.5 mM probenecid), buffer A is added and the plates are loaded with 2.5 μM Fluo-4 and 0.025% Pluronic F127 (Sigma-Aldrich, Taufkirchen, Germany). Thereafter, the cells are washed 2× with buffer A and incubated for 30 minutes at room temperature with buffer A, which additionally contains 0.05% BSA and 0.05% gelatine, and thereafter inserted into the FLIPR for the Ca^2+ measurement. The Ca^2+-dependent fluorescence is measured here before and after addition of substances (λex=488 nm, λem=540 nm). Quantification is by measurement of the highest fluorescence intensity (FC, fluorescence counts) over time.
The FLIPR protocol consists of 2 additions of substance. Test substances (10 μM) are first pipetted on to the cells and the Ca^2+ inflow is compared with the control (hB1R: Lys-Des-Arg^9-bradykinin>=50 nM; rB1R: Des-Arg^9-bradykinin 10 μM). This gives the result in % activation based on the Ca^2+ signal after addition of Lys-Des-Arg^9-bradykinin (>=50 nM) or Des-Arg^9-bradykinin (10 μM). After incubation for 10-20 minutes, Lys-Des-Arg^9-bradykinin (hB1R) or Des-Arg^9-bradykinin (rB1R) in the concentration of the EC80 is applied and the inflow of Ca^2+ is likewise determined. Antagonists lead to a suppression of the Ca^2+ inflow. % inhibition compared with the maximum achievable inhibition is calculated.
For determination of the IC50 value, the substances are added in various concentrations. […]

Molecule | inhibition at 10 µM [%]
COc1ccc(C(=O)N(C)C2CCc3ccc(C(=O)N4CCC5(CC4)CCN(c4ccncc4)CC5)cc32)c(Cl)c1 (centres unmarked) [IND_CC-201, 2-Chloro-4-methoxy-N-methyl-N-[6-(9-pyridin-4-yl-3,9-diazaspiro[5.5]undecane-3-carbonyl)-2,3-dihydro-1H-inden-1-yl]-benzamide] | 99
COc1ccc(C(=O)NC2CCc3ccc(C(=O)N4CCC5(CC4)CCN(c4ccncc4)CC5)cc32)c(Cl)c1 (centres unmarked) [IND_CC-211, 2-Chloro-4-methoxy-N-[6-(9-pyridin-4-yl-3,9-diazaspiro[5.5]undecane-3-carbonyl)-2,3-dihydro-1H-inden-1-yl]-benzamide] | 104
COc1ccc(C(=O)NC2CCc3ccc(C(=O)N4CCC5(CC4)CCN(c4ccc(C(F)(F)F)cc4)CC5)cc32)c(Cl)c1 (centres unmarked) [IND_CC-213, 2-Chloro-4-methoxy-N-[6-[9-[4-(trifluoromethyl)-phenyl]-3,9-diazaspiro[5.5]undecane-3-carbonyl]-2,3-dihydro-1H-inden-1-yl]-benzamide] | 73
O=C(NC1CCc2ccc(C(=O)N3CCC4(CC3)CCN(c3ccc(C(F)(F)F)cc3)CC4)cc21)c1cc(F)ccc1Cl (centres unmarked) [IND_CC-222, 2-Chloro-5-fluoro-N-[6-[9-[4-(trifluoromethyl)-phenyl]-3,9-diazaspiro[5.5]undecane-3-carbonyl]-2,3-dihydro-1H-inden-1-yl]-benzamide] | 60
Cc1cccc(Cl)c1S(=O)(=O)N(C)C1CCc2ccc(C(=O)N3CCC4(CC3)CCN(c3ccncc3)CC4)cc21 (centres unmarked) [IND_CC-227, 2-Chloro-N,6-dimethyl-N-[6-(9-pyridin-4-yl-3,9-diazaspiro[5.5]undecane-3-carbonyl)-2,3-dihydro-1H-inden-1-yl]-benzenesulfonic acid amide] | 97
O=C(NC1CCc2ccc(C(=O)N3CCC4(CC3)CCN(c3ccc(C(F)(F)F)cc3)CC4)cc21)c1cc(F)c(F)cc1Cl (centres unmarked) [IND_CC-230, 2-Chloro-4,5-difluoro-N-[6-[9-[4-(trifluoromethyl)-phenyl]-3,9-diazaspiro[5.5]undecane-3-carbonyl]-2,3-dihydro-1H-inden-1-yl]-benzamide] | 104

Results, then the molecule that gave them:

inhibition at 10 µM [%] | Molecule
89 | N#Cc1ccccc1C(=O)NC1CCc2ccc(C(=O)N3CCC4(CC3)CCN(c3ccc(C(F)(F)F)cc3)CC4)cc21 (centres unmarked) [IND_CC-235, 2-Cyano-N-[6-[9-[4-(trifluoromethyl)-phenyl]-3,9-diazaspiro[5.5]undecane-3-carbonyl]-2,3-dihydro-1H-inden-1-yl]-benzamide]
71 | Cc1cccc(Cl)c1S(=O)(=O)NC1CCc2ccc(C(=O)N3CCC4(CC3)CCN(c3ccc(C(F)(F)F)cc3)CC4)cc21 (centres unmarked) [IND_CC-239, 2-Chloro-6-methyl-N-[6-[9-[4-(trifluoromethyl)-phenyl]-3,9-diazaspiro[5.5]-undecane-3-carbonyl]-2,3-dihydro-1H-inden-1-yl]-benzenesulfonic acid amide]
90 | O=C(NC1CCc2ccc(C(=O)N3CCC4(CC3)CCN(c3ccc(C(F)(F)F)cc3)CC4)cc21)c1c(Cl)cccc1Cl (centres unmarked) [IND_CC-286, 2,6-Dichloro-N-[6-[9-[4-(trifluoromethyl)-phenyl]-3,9-diazaspiro[5.5]undecane-3-carbonyl]-2,3-dihydro-1H-inden-1-yl]-benzamide]
107 | COc1ccc(C(=O)NC2CCc3ccc(C(=O)N4CCC5(CC4)CCN(c4ccncc4)CC5)cc32)c(F)c1 (centres unmarked) [IND_CC-297, 2-Fluoro-4-methoxy-N-[6-(9-pyridin-4-yl-3,9-diazaspiro[5.5]undecane-3-carbonyl)-2,3-dihydro-1H-inden-1-yl]-benzamide]
74 | COc1ccc(C(=O)NC2CCc3ccc(C(=O)N4CCC5(CC4)CCN(c4ccncc4)C5)cc32)c(F)c1 (centres unmarked) [IND_CC-298, 2-Fluoro-4-methoxy-N-[6-(2-pyridin-4-yl-2,8-diazaspiro[4.5]decane-8-carbonyl)-2,3-dihydro-1H-inden-1-yl]-benzamide]
65 | Cc1cc(OC(F)(F)F)ccc1C(=O)NC1CCc2ccc(C(=O)N3CCC4(CC3)CCN(c3ccncc3)CC4)cc21 (centres unmarked) [IND_CC-300, 2-Methyl-N-[6-(9-pyridin-4-yl-3,9-diazaspiro[5.5]undecane-3-carbonyl)-2,3-dihydro-1H-inden-1-yl]-4-(trifluoromethyloxy)-benzamide]
106 | Cc1ccc(C(=O)NC2CCc3ccc(C(=O)N4CCC5(CC4)CCN(c4ccncc4)C5)cc32)c(F)c1 (centres unmarked) [IND_CC-306, 2-Fluoro-4-methyl-N-[6-(2-pyridin-4-yl-2,8-diazaspiro[4.5]decane-8-carbonyl)-2,3-dihydro-1H-inden-1-yl]-benzamide]
83 | COc1ccc(C(=O)NC2c3cc(C(=O)N4CCC5(CC4)CCN(c4ccncc4)CC5)ccc3CC2(C)C)c(F)c1 (centres unmarked) [IND_CC-311, N-[2,2-Dimethyl-6-(9-pyridin-4-yl-3,9-diazaspiro[5.5]undecane-3-carbonyl)-1,3-dihydro-inden-1-yl]-2-fluoro-4-methoxy-benzamide]
95 | COc1ccc(C(=O)NC2CCc3ccc(C(=O)N4CCC5(CCN(c6ccncc6)CC5)C4)cc32)c(F)c1 (centres unmarked) [IND_CC-313, 2-Fluoro-4-methoxy-N-[6-(8-pyridin-4-yl-2,8-diazaspiro[4.5]decane-2-carbonyl)-2,3-dihydro-1H-inden-1-yl]-benzamide]

Same assay, conditions: rat B1R

Molecule | % Inhibition (rat B1R) at 10 μM [%]
2,3-Dichloro-N-methyl-N-[6-(9-pyridin-4-yl-3,9-diazaspiro[5.5]undecane-3-carbonyl)-2,3-dihydro-1H-inden-1-yl]-benzenesulfonic acid amide [IND_CC-343] | 97
2-Chloro-N-[6-[8-[(2-chloro-4-fluoro-phenyl)-methyl]-2,8-diazaspiro-[4.5]decane-2-carbonyl]-2,3-dihydro-1H-inden-1-yl]-6-fluoro-benzamide [IND_CC-741] | 100
2-Chloro-N-[6-[9-[(1-methyl-1H-benzotriazol-5-yl)-methyl]-3,9-diazaspiro[5.5]-undecane-3-carbonyl]-2,3-dihydro-1H-inden-1-yl]-5-(trifluoromethyl)-benzamide [IND_CC-697] | 98
2-Methyl-N-[6-(8-pyridin-4-yl-2,8-diazaspiro[4.5]decane-2-carbonyl)-2,3-dihydro-1H-inden-1-yl]-benzamide [IND_CC-358] | 104
5-Chloro-2-fluoro-N-[6-[8-[3-(3-fluorophenyl)-propyl]-2,8-diazaspiro[4.5]decane-2-carbonyl]-2,3-dihydro-1H-inden-1-yl]-benzamide [IND_CC-674] | 67
